Experimental data taken from ChEMBL document CHEMBL1201862, “PubChem BioAssay data set” (2004).
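Exposure lasted 48 hours, with cells grown in 96-well plates and compounds tested at five concentrations. The concentration for 50% growth inhibition is given as GI50.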 The source made the active and inactive calls. Rule as the data show it: active = GI50 up to about 1.1 µM and inactive = higher.

Key:
Assay in all cases: inhibition of tumour cell growth, NCI panel, 48 h
CCRF-CEM = test system: CCRF-CEM
COLO 205 = test system: COLO 205
EKVX = test system: EKVX
HCT-15 = test system: HCT-15
HOP-92 = test system: HOP-92
HT-29 = test system: HT-29
IGROV-1 = test system: IGROV-1
KM-20L2 = test system: KM-20L2
KM12 = test system: KM12
MOLT-4 = test system: MOLT-4
NCI-H23 = test system: NCI-H23
NCI-H522 = test system: NCI-H522
OVCAR-8 = test system: OVCAR-8
PC-3 = test system: PC-3
SF-295 = test system: SF-295
SK-MEL-28 = test system: SK-MEL-28
SK-MEL-2 = test system: SK-MEL-2
SK-OV-3 = test system: SK-OV-3
SN12C = test system: SN12C
T47D = test system: T47D

SMILES | GI50 (CCRF-CEM) | GI50 (COLO 205) | GI50 (EKVX) | GI50 (HCT-15) | GI50 (HOP-92) | GI50 (HT-29) | GI50 (IGROV-1) | GI50 (KM-20L2) | GI50 (KM12) | GI50 (MOLT-4) | GI50 (NCI-H23) | GI50 (NCI-H522) | GI50 (OVCAR-8) | GI50 (PC-3) | GI50 (SF-295) | GI50 (SK-MEL-28) | GI50 (SK-MEL-2) | GI50 (SK-OV-3) | GI50 (SN12C) | GI50 (T47D)
Cc1ccc(NC(=O)CCc2nnc3s/c(=C\C=C\c4ccccc4)c(=O)n23)cc1 | 27.8 µM (inactive) | > 100 µM (inactive) | > 100 µM (inactive) | > 100 µM | > 83 µM (inactive) | > 100 µM (inactive) | > 100 µM (inactive) | > 100 µM (inactive) | 61.8 µM (inactive) | 30 µM (inactive) | > 100 µM (inactive) | 37.8 µM (inactive) | 31.3 µM (inactive) | > 100 µM (inactive) | > 100 µM (inactive) | > 100 µM (inactive) | 68.7 µM (inactive) | > 100 µM (inactive) | > 100 µM (inactive) | > 31.6 µM (inactive)
COc1cc(C2c3cc4c(cc3[C@@H](Nc3ccc(F)cc3)C3COC(=O)[C@H]23)OCO4)cc(OC)c1O (stereo partly specified) |  | 2.03 µM (inactive) | 3.76 µM (inactive) | 3.56 µM | 2.91 µM (inactive) | 3.41 µM (inactive) | 5.31 µM (inactive) | 2.08 µM (inactive) | 3.77 µM (inactive) | 0.0535 µM (active) | 1.3 µM (inactive) | 2.88 µM (inactive) | 2.53 µM (inactive) | 1.65 µM (inactive) | 0.834 µM (active) | 7.69 µM (inactive) | 6.49 µM (inactive) | 3.45 µM (inactive) | 1.57 µM (inactive) | 0.605 µM (active)
Cc1ccc(C(=O)OCC(C)C)cc1/N=N/N(C)C | > 100 µM (inactive) | > 100 µM (inactive) | > 100 µM (inactive) | 48.1 µM | > 65 µM (inactive) | 16.1 µM (inactive) | > 100 µM (inactive) | 38.7 µM (inactive) | 38.8 µM (inactive) | 59.7 µM (inactive) | 34.8 µM (inactive) | 35.2 µM (inactive) | > 100 µM (inactive) | 48.4 µM (inactive) | 27 µM (inactive) | > 71 µM (inactive) | > 100 µM (inactive) | > 100 µM (inactive) | > 65 µM (inactive) | 35.3 µM (inactive)
Cc1cc(C)nc(NS(=O)(=O)c2ccc(NC(=O)c3cccc4c(Nc5ccc(S(=O)(=O)Nc6nc(C)cc(C)n6)cc5)c5ccc(Cl)cc5nc34)cc2)n1 | 27.5 µM (inactive) | 33.8 µM (inactive) | 29.5 µM (inactive) | 75.5 µM | 28 µM (inactive) | 40.6 µM (inactive) | 46.2 µM (inactive) | 40.5 µM (inactive) | 33.1 µM (inactive) | 33.3 µM (inactive) | 39.4 µM (inactive) | 15.6 µM (inactive) | 34.7 µM (inactive) |  | 38 µM (inactive) | 29.6 µM (inactive) | 34 µM (inactive) | 26.7 µM (inactive) | 35.5 µM (inactive) | 
NC(=O)/C=C/c1c[nH]c2nccnc12 | 0.656 µM (active) | 1.67 µM (inactive) | 3.15 µM (inactive) | 3.27 µM | 3.52 µM (inactive) | 2.68 µM (inactive) | 3.83 µM (inactive) | 0.0723 µM (active) | 2.93 µM (inactive) | 0.641 µM (active) | 0.678 µM (active) | 7.13 µM (inactive) | 2.86 µM (inactive) | 2.99 µM (inactive) | 3.26 µM (inactive) | 0.628 µM (active) | 1.79 µM (inactive) | 3.95 µM (inactive) | 1.01 µM (active) | 3.5 µM (inactive)
OC1c2ccccc2C2(O)C1C(c1ccccc1)C(c1ccccc1)C2(O)c1ccccc1 (stereo unspecified) | 8.18 µM (inactive) | 14 µM (inactive) | 15.4 µM (inactive) | 3.06 µM | 7.33 µM (inactive) | 9.86 µM (inactive) | 18.2 µM (inactive) | 8.83 µM (inactive) | 10.6 µM (inactive) | 3.98 µM (inactive) | 13.3 µM (inactive) | 6.34 µM (inactive) | 12.6 µM (inactive) |  | 6.52 µM (inactive) | 11.9 µM (inactive) | 10.3 µM (inactive) | 22.2 µM (inactive) | 11.4 µM (inactive) | 
O=C(O)C1Cc2[nH]cnc2CN1 (stereo unspecified) | > 100 µM (inactive) | > 100 µM (inactive) | > 100 µM (inactive) | > 100 µM | > 100 µM (inactive) | > 100 µM (inactive) | > 100 µM (inactive) | > 100 µM (inactive) | > 100 µM (inactive) | > 100 µM (inactive) | > 100 µM (inactive) | > 100 µM (inactive) | > 100 µM (inactive) |  | > 100 µM (inactive) | > 100 µM (inactive) | > 100 µM (inactive) | > 100 µM (inactive) | > 100 µM (inactive) | 
O=C(Cn1ccnc1[N+](=O)[O-])N(CCO)CCO | > 250 µM (inactive) | > 1250 µM (inactive) | > 250 µM (inactive) | > 250 µM | > 1250 µM (inactive) | > 250 µM (inactive) | > 250 µM (inactive) | > 1250 µM (inactive) | > 250 µM (inactive) | > 250 µM (inactive) | > 250 µM (inactive) | > 250 µM (inactive) | > 250 µM (inactive) | > 250 µM (inactive) | > 250 µM (inactive) | > 250 µM (inactive) | 191 µM (inactive) | > 250 µM (inactive) | > 250 µM (inactive) | > 250 µM (inactive)
COc1cc(CC(C)N)ccc1O (stereo unspecified) | > 31.6 µM (inactive) | > 100 µM (inactive) | > 100 µM (inactive) | > 100 µM | > 85.9 µM (inactive) | > 100 µM (inactive) | > 100 µM (inactive) | > 100 µM (inactive) | > 100 µM (inactive) | > 100 µM (inactive) | > 100 µM (inactive) | > 100 µM (inactive) | > 100 µM (inactive) | > 100 µM (inactive) | > 100 µM (inactive) | > 100 µM (inactive) | > 100 µM (inactive) | > 100 µM (inactive) | > 100 µM (inactive) | > 100 µM (inactive)
O=C1C2C3CCC(C2C(=O)N1CO)C1C2C(=O)N(CO)C(=O)C2C31 (stereo unspecified) | 19.1 µM (inactive) | 40.4 µM (inactive) | > 100 µM (inactive) | 26.5 µM | > 63.1 µM (inactive) | 58.7 µM (inactive) | > 76 µM (inactive) | > 52.6 µM (inactive) | > 89.3 µM (inactive) | 25.1 µM (inactive) | > 87.9 µM (inactive) | 65.9 µM (inactive) | 32.4 µM (inactive) |  | > 64.9 µM (inactive) | > 58.9 µM (inactive) | 36 µM (inactive) | > 100 µM (inactive) | > 47.2 µM (inactive) | 
